Data as given in patent US12331121B2, “Efflux pump-cancer antigen multi-specific antibodies and compositions, reagents, kits and methods related thereto” (William Robert Arathoon Living Trust Dated August 29, 2016, priority 2019, dated 2025).

Tests used:
[1] = tested on: naïve 293T cells; test: Enhanced cell killing (chemosensitization) of naïve 293T cells with chemotherapeutic titration; format: cell-based, human
Method: (§1) HEK 293T, MCF-7, N6ADR and SKNF7 cell lines expressing Pgp were obtained from the American Type Culture Collection. N6/ADR cells is also referred to as NALM6/ADR cells. All cell lines and lines derived from them were maintained in RPMI 1640 or DMEM supplemented with up to 10% fetal bovine serum (Sigma), nonessential amino acids, and 2 mmol/L L-glutamine at 37° C. and 5% CO2 in a humidified incubator (unless otherwise indicated). Cells were used as supplied or were modified to overexpress (Ox) Pgp or were subject to having Pgp expression knocked down (KD) with lentiviral-mediated short hairpin RNA or knock out (KO) of the functional CD47 gene by CRISPR/Cas-mediated knock out technology essentially as described (Cong, L. et al. (2013) Science 339, 819-823). For vincristine and paclitaxel IC50 determination, cells were plated in normal growth medium and allowed to adhere overnight. Paclitaxel or vincristine (Sigma) were added in a dilution series and any modulators were added within ranges of 0 to 500 μM/L. Cell viability was measured 72 h later using the Celltiter-Glo Luminescent Cell Viability Assay (Promega).
FIG. 8 provides comparisons of binding and enhanced cell killing by different bispecific antibodies (with various humanized or chimerized heavy or light chain combinations). […] Columns 5-8 (“Binding (293)”, “Binding (293 KO CD47)”, Binding (293 KO CD47, OX ABCB1)”, and “Binding (293 OX ABCB1)”) provide FACS mean fluorescence intensities of antibodies binding to the indicated cell lines compared with non-binding control antibodies: “−”=˜zero, “±”=0 to ˜0.5 Log shift, “+”=˜1 Log shift, “++”=1→2 Log shift (see FIG. 3A for examples of non-binding controls and binding antibodies).

[2] = tested on: N6ADR cells; test: Paclitaxel sensitization of N6ADR cells in vitro; format: cell-based, human; details: FIG. 5, 6; compared to chemo only
Method: as §1
FIG. 5 and FIG. 6A-6C illustrate the enhanced killing of cells, by the antineoplastic agent paclitaxel, when cells are bound by the 15D3.aCD47:MRK16 bispecific antibody (highlighted with arrows).

[3] = tested on: 293T naïve cells; test: FACS binding to cells co-expressing Pgp and CD47; set-up: species or system human; details: FIG. 4
Method: (§2) In FIG. 4A-4B, the binding of the bispecific antibody is shown by FACS analysis against a variety of cell lines. The first scan (left panel in FIG. 4A and FIG. 4B) illustrates binding of the antibody to cells co-expressing both targets, (Pgp and CD47). […] FIG. 4A-4B further show binding with titrated antibody concentrations of 600 nM, 200 nM, 66 nM, 7.4 nM and 2 nM, with the signal measured from isotype and no antibody control also provided. The respective antibody concentrations are indicated in the left panel of FIG. 4A and FIG. 4B, and the measured signal from these different concentrations are generally overlapping in the middle and right panels of FIGS. 4A and 4B. FIG. 4A and FIG. 4B represent results obtained from two different batches of antibody.

[4] = tested on: 293 KT14-KO and KPB1-KD cells; test: FACS binding to cells with only one target present; set-up: species or system human; details: CD47 knock-out or Pgp knock-down 293T cells, FIG. 4
Method: as §2

[5] = tested on: A2780ADR cells; test: A2780ADR subcutaneous tumors in mice; format: in vivo
Method: A2780ADR MDR cancer cell line and HeyT30 MDR cancer cell line were injected into mice according to protocols described in Example 3. Mice were treated with BisP1.1 bispecific antibody with or without paclitaxel.
Cells: A2780ADR cell line (Sigma, catalogue no 93112520) is an epithelial ovarian carcinoma, derived from parent A2780 cell line (Sigma, catalogue no 93112519), was used in this study.
Mice: 5-6-weeks-old female nude mice (Charles River) were used in this study.
All animal maintenance, handling, surveillance, and animal procedures were performed in accordance with and approval from the APLAC protocol.
A2780ADR subcutaneous tumors: Mice were randomized into six groups of five mice each—(i) Control isotype IgG1 3 mg/kg, (ii) Control isotype IgG1 3 mg/kg and 20 mg/kg of paclitaxel, (iii) KNJYBisP1.1 3 mg/kg, (iv) KNJYBisP1.1 3 mg/kg and 20 mg/kg of paclitaxel, (v) KNJYBisP1.1 N297A 3 mg/kg and (vi) KNJYBisP1.1 N297A 3 mg/kg and 20 mg/kg of paclitaxel. Antibody and paclitaxel were dosed intraperitoneally twice a week for two consecutive weeks.
A2780ADR subcutaneous tumors: Once tumors reached 100-150 mm^3, mice were randomized into ten groups of five mice each—(i) Control isotype IgG1 3 mg/kg, (ii) Control isotype IgG1 3 mg/kg and 20 mg/kg of paclitaxel, (iii) KNJYBisP1.1 3 mg/kg, (iv) KNJYBisP1.1 3 mg/kg and 20 mg/kg of paclitaxel, (v) 15D3 hybridoma monoclonal Ab 3 mg/kg, (vi) 15D3 hybridoma 3 mg/kg and 20 mg/kg of paclitaxel, (vii) KT14/KT14 monoclonal Ab 3 mg/kg, (viii) KT14/KT14 monoclonal Ab 3 mg/kg and 20 mg/kg of paclitaxel, (ix) 15D3 hybridoma+KT14/KT14, 1.5 mg each and (x) 15D3 hybridoma+KT14/KT14, 1.5 mg each and 20 mg/kg of paclitaxel. Antibodies and paclitaxel were dosed intraperitoneally twice a week for two consecutive weeks.

[6] = tested on: multidrug resistant N6ADR cells; test: N6ADR tumors in mice (Example 5); format: in vivo
Method: Tumors formed by injecting multidrug resistant N6ADR cells in mice were treated by administering the anti-MDR1 antibody 15D3, with or without paclitaxel or administering KbisP1.1 with or without paclitaxel.

[7] = tested on: human red blood cells (RBCs); test: Binding to human erythrocytes; details: FIG. 22A; in contrast to anti-CD47 5F9
[8] = tested on: cynomolgus RBCs; test: Binding to cynomolgus erythrocytes; details: FIG. 22B; in contrast to anti-CD47 5F9

With “KBisP1.1: bispecific anti-MDR1/anti-CD47 antibody: 15D3 heavy chain, 5F9 (KT14) heavy chain, common MRK16 light chain, human IgG1” the “sensitivity of naïve 293T cells to paclitaxel” value ([1]; FIG. 5, 6, compared to chemo only) was “enhanced”, the “in vitro killing of naïve 293T with vincristine” value ([1]; antibody 25 nM, compared to vincristine alone, FIG. 7) was “enhanced in vitro killing” and the “Killing: enhanced 293 naïve cell-killing (sensitization)” value ([1]; paclitaxel titration, FIG. 8) was “++ (≥2 Log shift)”. For the same substance, the “sensitivity of N6ADR cells to paclitaxel” value [2] was “enhanced”, the “FACS binding when both targets are co-expressed” value [3] was “specific binding” and the “FACS binding when only one of the targets is present” value [4] was “does not show significant binding”. The “FACS binding when only one of the targets is present” value ([4]; listed as HC-15D3:HC-5F9:LC-MRK16) was “significantly reduced binding”, the “chemosensitizing effect compared with monospecific antibodies” value ([5]; 3 mg/kg with paclitaxel 20 mg/kg, FIG. 28) was “stronger compared to either the anti-MDR1 15D3 hybridoma antibody or anti-CD47 KT14 monoclonal antibody” and the tumor volume ([5]; Example 4, with or without paclitaxel, FIG. 18) was “efficacious in reducing A2780ADR MDR cancer cell tumor volume with or without paclitaxel”. For the same substance, the “chemosensitization of A2780ADR tumors to paclitaxel” value ([5]; antibody 3 mg/kg, paclitaxel 20 mg/kg) was “chemosensitizes”, the “chemo-sensitization of N6ADR tumor to paclitaxel” value ([6]; FIG. 21) was “dose-dependent” and the “efficacy against N6ADR cell tumors” value ([6]; with or without paclitaxel, FIG. 20) was “more efficacious than the 15D3 antibody”. For the same substance, the “binding to human erythrocytes” value [7] was “no significant binding” and the “binding to cynomolgus erythrocytes” value [8] was “no significant binding”.
